In paper PMC11821233, “Impact of Bioactive Ingredients on the Fecal Excretion of Aflatoxin B1 and Ochratoxin A in Wistar Rats” (Molecules, 2025):
Several values for one entry are separate records, joined by “and”; a condition that tells them apart may be missing. Equal values may be shown once. Read-outs that look alike come from different tables or passages of the source.

Experiments:
[1] = not given; remark: listed apart in the source
[2] = females, feces collected in the fourth week of the in vivo study, label = diet group, LOD 0.1 µg/kg
[3] = males, feces collected in the fourth week of the in vivo study, label = diet group, LOD 0.1 µg/kg

| Molecule | Concentration of AFB1 in rat feces [2] | Concentration of AFB1 in rat feces [3] | Concentration of OTA in rat feces [1, 2] [µg mycotoxin/kg dry feces] | Concentration of OTA in rat feces [1, 3] [µg mycotoxin/kg dry feces] | Concentration of AFB1 in rat feces (rat, in vivo) | Concentration of OTA in rat feces ([1]; rat, in vivo) |
| --- | --- | --- | --- | --- | --- | --- |
| C[C@@H]1Cc2c(Cl)cc(C(=O)N[C@@H](Cc3ccccc3)C(=O)O)c(O)c2C(=O)O1 [OTA, ochratoxin A] | <LOD | <LOD | 933 ± 512 | 1729 ± 712 |  |  |
| aflatoxin B1 [AFB1] |  |  |  |  | 52 ± 61 µg mycotoxin/kg dry feces and 91 ± 77 µg mycotoxin/kg dry feces | <LOD |
